Active and inactive are the calls of the source. No cut-off for these calls is given here.
Legend:
[1] = in vivo; details: Swiss Webster, mouse, blood and plasma, sc, 0.1 mg/kg
Description: Ratio of drug level in Swiss Webster mouse blood to plasma at 0.1 mg/kg, sc measured after 60 mins by LC-MS/MS analysis

[2] = system: Mus musculus; experiment: Antinociception activity in male Swiss Webster mouse model assessed as increase in maximum possible effect at 0.1 mg/kg, sc measured after 30 to 360 mins post injection by warm-water tail immersion assay; format: functional, organism-based; details: time 30-360 min
[3] = target: Mu-type opioid receptor (Mus musculus, UniProt P42866); experiment: Displacement of [3H]Naloxone from mouse MOR expressed in CHO cells assessed as dissociation constant incubated for […] by radioligand binding assay; format: cell-based
[4] = Drug uptake in Swiss Webster mouse plasma at 0.1 mg/kg, sc measured after 5 mins by LC-MS/MS analysis; format: ADME, organism-based; details: in vivo
[5] = system: Mus musculus; experiment: Antinociception activity in male Swiss Webster mouse model assessed as increase in maximum possible effect at 10 mg/kg, sc measured after 20 mins by warm-water tail immersion assay relative to control; format: functional
[6] = system: Mus musculus; experiment: Antinociception activity in male Swiss Webster mouse model assessed as effect on tail withdrawal latency at 0.05 to 0.1 mg/kg, sc pre incubated with naltrindole for 30 mins followed by compound addition and measured after 20 mins by warm water tail immersion assay; format: functional, organism-based; details: dose 0.05-0.1 mg/kg
[7] = system: Mus musculus; experiment: Antinociception activity in male Swiss Webster mouse model assessed as increase in maximum possible effect at 0.05 mg/kg, sc measured after 6 hrs post injection by warm-water tail immersion assay; format: functional, organism-based
[8] = Toxicity in Swiss Webster mouse assessed as reduction in sedative effect at 0.05 to 0.5 mg/kg,sc; format: organism-based; details: in vivo, dose 0.05-0.5 mg/kg
[9] = Toxicity in Swiss Webster mouse assessed as effect on locomotion at 0.05 to 0.5 mg/kg,sc measured after 30 mins; format: organism-based; details: in vivo, 0.5 h, dose 0.05-0.5 mg/kg
[10] = in vivo; details: Swiss Webster, mouse, blood and plasma, sc, 0.1 mg/kg; remark: listed apart in the source
Description: Ratio of drug level in Swiss Webster mouse blood to plasma at 0.1 mg/kg, sc measured after 30 mins by LC-MS/MS analysis

[11] = system: Mus musculus; experiment: Antinociception activity in male Swiss Webster mouse model assessed as effect on tail withdrawal latency at 0.05 to 0.1 mg/kg, sc pre incubated with nor-BNI for 24 hrs followed by compound addition and measured after 20 mins by warm water tail immersion assay; format: functional, organism-based; details: dose 0.05-0.1 mg/kg
[12] = target: T1, Delta-type opioid receptor (Homo sapiens, UniProt P41143); experiment: Displacement of [3H]diprenorphine from human DOR expressed in CHO cells assessed as dissociation constant incubated for […] by radioligand binding assay; format: cell-based
[13] = in vivo; details: Swiss Webster, mouse, blood and plasma, sc, 0.1 mg/kg; remark: listed apart in the source
Description: Ratio of drug level in Swiss Webster mouse blood to plasma at 0.1 mg/kg, sc measured after 10 mins by LC-MS/MS analysis

[14] = system: Mus musculus; experiment: Antinociception activity in male Swiss Webster mouse model assessed as increase in maximum possible effect at 0.05 mg/kg, sc measured until 3 hrs post injection by warm-water tail immersion assay; format: functional, organism-based
[15] = Toxicity in Swiss Webster mouse assessed as effect on average speed at 0.05 to 0.5 mg/kg,sc measured after 30 mins; format: organism-based; details: in vivo, 0.5 h, dose 0.05-0.5 mg/kg
[16] = target: Kappa-type opioid receptor (Mus musculus, UniProt P33534); experiment: Displacement of [3H]diprenorphine from mouse KOR expressed in CHO cells assessed as dissociation constant incubated for […] by radioligand binding assay; format: cell-based
[17] = Abuse liability in male Sprague-Dawley rat assessed as reduction in reinforcement at 0.32 to 10 microg/kg administered per infusion; format: toxicity; details: in vivo, iv, dose 0.32-10 µg/kg
[18] = system: Mus musculus; experiment: Antinociception activity in male Swiss Webster mouse model assessed as effect on tail withdrawal latency at 0.05 to 0.1 mg/kg, sc pre incubated with nor-BNI/naltrindole for 24 hrs followed by compound addition and measured after 20 mins by warm water tail immersion assay; format: functional, organism-based; details: dose 0.05-0.1 mg/kg
[19] = target: T1, Delta-type opioid receptor; experiment: Agonist activity at human DOR expressed in CHO cells increase in [35S]GTPgammaS binding measured after […] by scintillation counter analysis relative to SNC80; format: functional, cell-based; details: filed as agonist

T1 sequence (P41143 whole entry): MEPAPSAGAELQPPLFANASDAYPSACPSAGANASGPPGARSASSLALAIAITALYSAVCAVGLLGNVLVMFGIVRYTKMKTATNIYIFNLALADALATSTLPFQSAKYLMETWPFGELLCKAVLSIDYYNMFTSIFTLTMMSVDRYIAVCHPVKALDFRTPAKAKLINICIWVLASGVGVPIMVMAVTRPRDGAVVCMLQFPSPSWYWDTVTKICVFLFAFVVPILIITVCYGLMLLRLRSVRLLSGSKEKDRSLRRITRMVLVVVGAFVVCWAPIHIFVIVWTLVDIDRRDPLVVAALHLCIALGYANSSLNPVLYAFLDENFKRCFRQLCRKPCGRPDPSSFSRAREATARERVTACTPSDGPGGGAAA
Kappa-type opioid receptor, sequence (P33534 whole entry, the tested form may be a part): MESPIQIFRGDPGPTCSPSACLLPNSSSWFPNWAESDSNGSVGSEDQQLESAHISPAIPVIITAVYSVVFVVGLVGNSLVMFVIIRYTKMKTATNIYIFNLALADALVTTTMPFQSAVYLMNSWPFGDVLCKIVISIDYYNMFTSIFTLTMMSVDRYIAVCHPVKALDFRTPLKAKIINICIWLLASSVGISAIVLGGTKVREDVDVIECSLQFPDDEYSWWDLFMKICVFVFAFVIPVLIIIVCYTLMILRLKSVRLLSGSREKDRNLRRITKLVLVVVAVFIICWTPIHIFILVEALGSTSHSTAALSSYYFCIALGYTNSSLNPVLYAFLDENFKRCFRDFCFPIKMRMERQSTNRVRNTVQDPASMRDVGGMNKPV
Mu-type opioid receptor, sequence (P42866 whole entry): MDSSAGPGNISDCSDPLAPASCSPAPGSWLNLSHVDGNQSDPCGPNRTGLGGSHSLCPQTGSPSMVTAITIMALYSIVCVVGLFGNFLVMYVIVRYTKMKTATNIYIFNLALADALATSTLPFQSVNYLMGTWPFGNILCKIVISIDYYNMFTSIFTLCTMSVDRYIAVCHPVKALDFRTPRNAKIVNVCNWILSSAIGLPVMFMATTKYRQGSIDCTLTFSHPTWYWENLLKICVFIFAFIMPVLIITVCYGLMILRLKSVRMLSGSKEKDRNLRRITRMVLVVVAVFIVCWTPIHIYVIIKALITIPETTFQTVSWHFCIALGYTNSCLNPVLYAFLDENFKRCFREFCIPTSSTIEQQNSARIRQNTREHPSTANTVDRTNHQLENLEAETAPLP

For CN(C(=O)/C=C/c1ccco1)[C@@H]1CC[C@@]2(O)[C@H]3Cc4ccc(O)c5c4[C@@]2(CCN3CC2CC2)[C@H]1O5.Cl, the blood plasma ratio at 1 h [1] was 1.45, the Activity [2] was “Active” and the Kd [3] was 0.78 nM. For the same compound, the Drug uptake [4] was “Active”, the MPE [5] was 100% and the Activity [6] was “inactive”. For the same compound, the Activity [7] was “inactive”, the Activity [8] was “Toxic” and the Activity [9] was “Toxic”. The blood plasma ratio at 0.5 h [10] was 0.645, the Activity [11] was “inactive” and the Kd [12] was 7.93 nM. The blood plasma ratio at 10 min [13] was 0.762, the Activity [14] was “Active” and the Activity [15] was “Toxic”. The Kd [16] was 0.22 nM, the Activity [17] was “Non-Toxic” and the Activity [18] was “inactive”. For the same compound, the Emax [19] was 96.1%.
